Test results as given in patent US12171230B2, “Herbicidal compositions” (Bayer Aktiengesellschaft, priority 2018, dated 2024).
Read-outs that look alike come from different tables or passages of the source.

Experiments:
Type in all cases: in vivo
[1] = system: Amaranthus palmeri; assay: Post-emergence herbicidal action against Amaranthus palmeri; conditions: for Herbicidal action: 21 DAT, (res.); for pest or weed control at 5 g/ha: 5 g of a.i./ha
In short: (§1)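 Post-emergence foliar application: sandy-loam pots, greenhouse, treatment at three-leaf stage, 300–800 l/ha spray volume. Readout is visual % effect at 3–4 weeks, compared with the Colby expected value for mixtures.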

[2] = system: Bidens pilosa; assay: Post-emergence herbicidal action against Bidens pilosa
In short: as §1

[3] = system: Brachiaria platyphylla; assay: Post-emergence herbicidal action against Brachiaria platyphylla
Experimental: (§2) When the observed efficacies exceed the formal sum total of the values of the tests with individual applications, they also exceed the expected value according to Colby, which is calculated using the formula below and is likewise regarded as an indication of synergism (cf. S. R. Colby; in Weeds 15 (1967) p. 20 to 22): E^C=A+B−([…])
(§3) Here: • A=efficacy of the active compound (A) in % at an application rate of a g a.i./ha; • B=efficacy of the active compound (B) in % at an application rate of b g a.i./ha; • E^C=expected value of the effect of the combination (A)+(B) in % at the combined application rate a+b g a.i./ha.
(§4) Seeds or rhizome pieces of mono- and dicotyledonous weeds are placed in sandy loam in pots, covered with soil and grown in a greenhouse under good growth conditions (temperature, air humidity, water supply). Three weeks after sowing, the test plants were treated at the three-leaf stage with the compositions according to the invention. The compositions according to the invention formulated as spray powders or as emulsion concentrates were sprayed onto the green plant parts in various dosages with an application rate of 300 to 800 l/ha of water (equivalent). After the test plants have been left to stand in the greenhouse under optimal growth conditions for about 3 to 4 weeks, the action of the preparations is scored visually in comparison to untreated controls. The compositions according to the invention also have good post-emergence herbicidal activity against a broad spectrum of economically important gramineous and broadleaf weeds.

[4] = system: Setaria viridis; assay: Post-emergence herbicidal action against Setaria viridis; conditions: 21 DAT; 1.7 g a.i./ha
Experimental: as §2, §3, §4

[5] = system: Sorghum halepense; assay: Post-emergence herbicidal action against Sorghum halepense; conditions: for Herbicidal action: 21 DAT
Experimental: as §2, §3, §4

[6] = system: Digitaria sanguinalis; assay: Post-emergence herbicidal action against Digitaria sanguinalis
In short: as §1

[7] = system: Echinochloa crus-galli; assay: Post-emergence herbicidal action against Echinochloa crus-galli; conditions: (Z3) post-emergence; g of a.i./ha: 270, 30, 5, 5 + 270, 5 + 30
Experimental: as §2, §3, §4

[8] = system: Eleusine indica; assay: Post-emergence herbicidal action against Eleusine indica; conditions: (Z3) post-emergence, g of a.i./ha: 270, 90, 15, 5, 5 + 270, 15 + 90
Description: (§5) The following abbreviations are used in the description and the tables that follow: • g of a.i./ha=grams of active substance (active ingredient) (=100% active compound) per hectare; • The sum total of the effects of the individual applications is reported under E^A; • expected values according to Colby are each reported under E^C.
(§6) The rating period is reported in days after application (DAT).

[9] = system: Eleusine indica; assay: as above; conditions: 21 DAT; 1.7 g a.i./ha
[10] = system: Polygonum convolvulus; assay: Post-emergence herbicidal action against Polygonum convolvulus; conditions: g of a.i./ha: 90, 30, 45, 45 + 90, 45 + 30
Description: as §5, §6

[11] = system: Kochia scoparia; assay: Post-emergence herbicidal action against Kochia scoparia; conditions: 21 DAT
[12] = system: Polygonum convolvulus; assay: Post-emergence herbicidal action against Polygonum convolvulus; conditions: 21 DAT
[13] = system: Ipomoea hederacea; assay: Post-emergence herbicidal action against Ipomoea hederacea; conditions: 35 g of a.i./ha
Experimental: as §2, §3, §4

[14] = system: Panicum maximum; assay: Post-emergence herbicidal action against Panicum maximum; conditions: 75 g of a.i./ha
Experimental: as §2, §3, §4

[15] = system: Bellis perenne; assay: Post-emergence herbicidal action against Bellis perenne; conditions: 105 g of a.i./ha
Experimental: as §2, §3
as §4, with “The compositions according to the invention also have good post-emergence herbicidal activity against a broad spectrum of economically important gramineous and broadleaf weeds.” left out

[16] = system: Ephilobium hirsutum; assay: Post-emergence herbicidal action against Ephilobium hirsutum; conditions: 105 g of a.i./ha
Experimental: as §2, §3
as §4, with “The compositions according to the invention also have good post-emergence herbicidal activity against a broad spectrum of economically important gramineous and broadleaf weeds.” left out

[17] = system: Lamium purpureum; assay: Post-emergence herbicidal action against Lamium purpureum; conditions: 105 g of a.i./ha, post-emergence
In short: as §1

[18] = system: Ranunculus repens; assay: Post-emergence herbicidal action against Ranunculus repens; conditions: 105 g of a.i./ha
Experimental: as §2, §3
as §4, with “After the test plants have been left to stand in the greenhouse under optimal growth conditions for about 3 to 4 weeks, the action of the preparations is scored visually in comparison to untreated controls.” left out

[19] = system: Viola arvensis; assay: Post-emergence herbicidal action against Viola arvensis; conditions: 105 g of a.i./ha
Experimental: as §2, §3
as §4, with “After the test plants have been left to stand in the greenhouse under optimal growth conditions for about 3 to 4 weeks, the action of the preparations is scored visually in comparison to untreated controls.” left out

[20] = system: Abutilon theophrasti; assay: Post-emergence herbicidal action against Abutilon theophrasti; conditions: 75 g of a.i./ha

COC(=O)[C@H]1C[C@@H](NC(=O)C2(OC)CC(c3cc(Cl)cc(Cl)c3)=NO2)CO1 (relative stereo) [Compound A1, methyl rel-(2R,4R)-4-[[3-(3,5-dichlorophenyl)-5-methoxy-4H-isoxazole-5-carbonyl]amino]tetrahydrofuran-2-carboxylate]
Herbicidal action ([1]; 5 g a.i./ha): 10%
Herbicidal action ([1]; 15 g a.i./ha): 10%
Herbicidal action ([1]; 45 g a.i./ha): 40%
Herbicidal action ([2]; 21 DAT, 15 g a.i./ha): 35%
Herbicidal action 21 DAT against Bidens pilosa ([2]; post-emergence, g of a.i./ha: 90, 30, 15, 15 + 90, 15 + 30): 35%
Herbicidal action ([3]; 21 DAT, 1.7 g a.i./ha): 50%
Herbicidal action [4]: 15%
Herbicidal action ([5]; 1.7 g a.i./ha): 10%
Herbicidal action ([5]; 15 g a.i./ha): 35%
Herbicidal action ([6]; 21 DAT, 1.7 g a.i./ha): 20%
Herbicidal action 21 DAT against Echinochloa crus-galli [7]: 10%
Herbicidal action 21 DAT against Eleusine indica ([8]; 5 g of a.i./ha): 45%
Herbicidal action 21 DAT against Eleusine indica ([8]; 15 g of a.i./ha): 70%
Herbicidal action [9]: 20%
Herbicidal action 21 DAT against Polygonum convolvulus [10]: 85%
Herbicidal action ([11]; 5 g a.i./ha): 20%
Herbicidal action ([11]; 15 g a.i./ha): 45%
Herbicidal action ([12]; 5 g a.i./ha): 85%
Herbicidal action ([12]; 45 g a.i./ha): 85%

CCS(=O)(=O)c1cccnc1S(=O)(=O)NC(=O)Nc1nc(OC)cc(OC)n1 [(B2.63) Rimsulfuron]
Herbicidal action 37 DAT against Ipomoea hederacea [13]: 0%

CS(=O)(=O)c1ccc(C(=O)C2C(=O)CCCC2=O)c([N+](=O)[O-])c1 [(B1.7) Mesotrione, mesotrione, reference compound]
Herbicidal action 28 DAT [%] against Panicum maximum [14]: 0%
Herbicidal action 43 DAT [%] against Bellis perenne [15]: 0%
Herbicidal action 43 DAT [%] against Ephilobium hirsutum [16]: 0%
Herbicidal action 32 DAT [%] against Lamium purpureum [17]: 0%
Herbicidal action 43 DAT [%] against Ranunculus repens [18]: 0%
Herbicidal action 43 DAT [%] against Viola arvensis [19]: 0%
pest or weed control at 5 g/ha ([1]; Amaranthus palmeri, post-emergence, 504 h, post-emergence, block with (B1.7) Mesotrione, read-out: Herbicidal action 21 DAT [%] against Amaranthus palmeri): 0%
Herbicidal action 21 DAT [%] against Bidens pilosa ([2]; 5 g of a.i./ha, post-emergence, block with (B1.7) Mesotrione): 0%
Herbicidal action 21 DAT [%] against Bidens pilosa ([2]; 45 g of a.i./ha, post-emergence, block with (B1.7) Mesotrione): 25%

CS(=O)(=O)c1cc(C(F)(F)F)ccc1C(=O)c1cnoc1C1CC1 [(B4.18) Isoxaflutole]
pest or weed control at 5 g/ha ([1]; Amaranthus palmeri, post-emergence, 504 h, read-out: Herbicidal action 21 DAT [%] against Amaranthus palmeri): 10%
pest or weed control at 15 g/ha ([1]; Amaranthus palmeri, post-emergence, 504 h, 15 g of a.i./ha, read-out: Herbicidal action 21 DAT [%] against Amaranthus palmeri): 10%
pest or weed control at 45 g/ha ([1]; Amaranthus palmeri, post-emergence, 504 h, 45 g of a.i./ha, read-out: Herbicidal action 21 DAT [%] against Amaranthus palmeri): 20%
Herbicidal action 21 DAT [%] against Bidens pilosa ([2]; 5 g of a.i./ha): 20%
Herbicidal action 21 DAT [%] against Bidens pilosa ([2]; 45 g of a.i./ha): 60%
Herbicidal action 21 DAT [%] against Brachiaria platyphylla ([3]; 15 g of a.i./ha): 20%
Herbicidal action 21 DAT [%] against Brachiaria platyphylla ([3]; 45 g of a.i./ha): 30%
Herbicidal action 21 DAT [%] against Sorghum halepense ([5]; 45 g of a.i./ha): 60%
Herbicidal action 21 DAT [%] against Digitaria sanguinalis ([6]; 15 g of a.i./ha): 10%
Herbicidal action 21 DAT [%] against Digitaria sanguinalis ([6]; 45 g of a.i./ha): 25%
Herbicidal action 37 DAT [%] against Abutilon theophrasti [20]: 58%
